Source: patent US7799781B2, “5,6,7,8-tetrahydropteridine derivatives as HSP90 inhibitors” (AstraZeneca AB, priority 2007, dated 2010)
pIC50: −log10 of the molar value.

molecular target: T1, HSP90α (Homo sapiens, UniProt P07900); assay: Test (a) In Vitro Binding Assay (fluorescence polarisation, binding to the ATP pocket of HSP90α); settings: FP probe displacement, geometric mean where tested more than once
T1 construct: 6H is tagged HSP90α protein (amino acids 2-732) expressed in E. coli; 6His; made in house; host or cells: E. coli
Procedure: Test (a) In Vitro Binding Assay
Test (a) measures the ability of a compound to bind to the ATP pocket of HSP90α. 6H is tagged HSP90α protein (amino acids 2-732) expressed in E. coli was purified and stored at −80° C. in aliquots. Assay measurements were performed in assay buffer comprising 20 mM HEPES pH 7.4, 50 mM KCl, 20 mM NaHMoO4, 0.01% Nonidet P40, 2 mM DTT and 0.1 mg/ml BSA. Following resuspension in DMSO, the FP probe 3-[[5-(5-ethyl-2,4-dihydroxy-phenyl)-4-(4-methoxyphenyl)2H-pyrazole-3-carbonyl]amino]propyl-Cy3B-amide; 14-(2-{[3-({[3-(5-ethyl-2,4-dihydroxyphenyl)-4-(4-methoxyphenyl)-1H-pyrazol-5-yl]carbonyl}amino)propyl]amino}-2-oxoethyl)-16,16,18,18-tetramethyl-2-sulfo-6,7,7a,8a,9,10,16,18-octahydrobenzo[2″,3″]indolizino [8″,7″:5′,6′]pyrano[3′,2′:3,4]pyrido[1,2-a]indol-5-ium) was diluted to a final concentration of 5 nM in assay buffer. Test compounds were prepared by dilution in 100% DMSO to give the appropriate dose range and dispensed into a 384 well assay plate as a 6X concentrate. Upon addition of recombinant HSP90α to a final assay concentration of 1 μg/ml, FP probe was added and plates incubated at room temperature for 1 to 4 hours. Final DMSO concentration was 1% in a total assay volume of 18 μl. Fluorescence Polarisation measurements were made using a Tecan Ultra plate reader using an excitation wavelength of 530 nm and an emission wavelength of 590 nm. Millipolarisation (mP) values were estimated using Xfluor software.
The data in the above table was generated in an assay substantially as described above in relation to in-vitro Binding Assay (a). Some of the compounds shown in the table were tested more than once in the assay. For those compounds the IC50 value shown is the geometric mean of the measured IC50 values. Therefore, as will be understood, the IC50 values quoted above are not absolute and further measurements of the IC50 values may result in a different mean IC50 value.

Structure (SMILES)	pIC50
COc1c(C)cnc(CN2c3nc(N)ncc3NC(=O)[C@@H]2C)c1C [Example 1, (7S)-2-amino-8-[(4-methoxy-3,5-dimethylpyridin-2-yl)methyl]-7-methyl-7,8-dihydropteridin-6(5H)-one]	5.00
CCC[C@H]1C(=O)Nc2cnc(N)nc2N1Cc1ncc(C)c(OC)c1C [Example 2.1, (7S)-2-amino-8-[(4-methoxy-3,5-dimethylpyridin-2-yl)methyl]-7-propyl-7,8-dihydropteridin-6(5H)-one]	4.83
COc1c(C)cnc(CN2c3nc(N)ncc3NC(=O)[C@H]2C)c1C [Example 2.2, (7R)-2-amino-8-[(4-methoxy-3,5-dimethylpyridin-2-yl)methyl]-7-methyl-7,8-dihydropteridin-6(5H)-one]	6.07
COc1c(C)cnc(CN2CC(=O)Nc3cnc(N)nc32)c1C [Example 2.3, 2-amino-8-[(4-methoxy-3,5-dimethylpyridin-2-yl)methyl]-7,8-dihydropteridin-6(5H)-one]	5.94
COc1c(C)cnc(CN2c3nc(N)ncc3N(C)C(=O)[C@@H]2C)c1C [Example 3, (7S)-2-amino-8-[(4-methoxy-3,5-dimethylpyridin-2-yl)methyl]-5,7-dimethyl-7,8-dihydropteridin-6(5H)-one]	4.73
CCN1C(=O)[C@H](C)N(Cc2ncc(C)c(OC)c2C)c2nc(N)ncc21 [Example 4.1, (7S)-2-amino-5-ethyl-8-[(4-methoxy-3,5-dimethylpyridin-2-yl)methyl]-7-methyl-7,8-dihydropteridin-6(5H)-one]	4.78
COc1c(C)cnc(CN2c3nc(N)ncc3N(C)C(=O)[C@H]2C)c1C [Example 4.2, (7R)-2-amino-8-[(4-methoxy-3,5-dimethylpyridin-2-yl)methyl]-5,7-dimethyl-7,8-dihydropteridin-6(5H)-one]	6.10
COc1c(C)cnc(CN2CC(=O)N(C)c3cnc(N)nc32)c1C [Example 4.3, 2-amino-8-[(4-methoxy-3,5-dimethylpyridin-2-yl)methyl]-5-methyl-7,8-dihydropteridin-6(5H)-one]	6.48
COc1c(C)cnc(CN2c3nc(N)ncc3NC[C@@H]2C)c1C [Example 5, (7S)-8-[(4-methoxy-3,5-dimethylpyridin-2-yl)methyl]-7-methyl-5,6,7,8-tetrahydropteridin-2-amine]	4.09
COc1c(C)cnc(CN2c3nc(N)ncc3N(C)C[C@@H]2C)c1C [Example 6.1, (7S)-8-[(4-methoxy-3,5-dimethylpyridin-2-yl)methyl]-5,7-dimethyl-5,6,7,8-tetrahydropteridin-2-amine]	3.82
COc1c(C)cnc(CN2c3nc(N)ncc3NC[C@H]2C)c1C [Example 6.2, (7R)-8-[(4-methoxy-3,5-dimethylpyridin-2-yl)methyl]-7-methyl-5,6,7,8-tetrahydropteridin-2-amine]	5.54
COc1c(C)cnc(CN2c3nc(N)ncc3N(C)C[C@H]2C)c1C [Example 6.3, (7R)-8-[(4-methoxy-3,5-dimethylpyridin-2-yl)methyl]-5,7-dimethyl-5,6,7,8-tetrahydropteridin-2-amine]	4.81
COc1c(C)cnc(CN2CCN(C)c3cnc(N)nc32)c1C [Example 6.4, 8-[(4-methoxy-3,5-dimethylpyridin-2-yl)methyl]-5-methyl-5,6,7,8-tetrahydropteridin-2-amine]	4.89
COc1c(C)cnc(CN2c3nc(N)ncc3NC(=O)[C@H]2CC(C)C)c1C [Example 7.1, (7R)-2-amino-8-[(4-methoxy-3,5-dimethyl-pyridin-2-yl)methyl]-7-(2-methylpropyl)-7,8-dihydropteridin-6(5H)-one]	5.71
COc1c(C)cnc(CN2c3nc(N)ncc3NC(=O)[C@H]2Cc2ccccc2)c1C [Example 7.2, (7R)-2-amino-7-benzyl-8-[(4-methoxy-3,5-dimethyl-pyridin-2-yl)methyl]-7,8-dihydropteridin-6(5H)-one]	6.28
COC(=O)C[C@@H]1C(=O)Nc2cnc(N)nc2N1Cc1ncc(C)c(OC)c1C [Example 7.3, Methyl {(7R)-2-amino-8-[(4-methoxy-3,5-dimethylpyridin-2-yl)methyl]-6-oxo-5,6,7,8-tetrahydropteridin-7-yl}acetate]	6.49

Structure (SMILES)	pIC50
CCC[C@@H]1C(=O)Nc2cnc(N)nc2N1Cc1ncc(C)c(OC)c1C [Example 7.4, (7R)-2-amino-8-[(4-methoxy-3,5-dimethyl-pyridin-2-yl)methyl]-7-propyl-7,8-dihydropteridin-6(5H)-one]	5.75
COc1c(C)cnc(CN2CC(=O)Nc3c(Cl)nc(N)nc32)c1C [Example 8, 2-Amino-4-chloro-8-[(4-methoxy-3,5-dimethyl-pyridin-2-yl)methyl]-5,7-dihydropteridin-6-one]	7.00
COc1c(C)cnc(CN2CC(=O)Nc3c(SC)nc(N)nc32)c1C [Example 9, 2-Amino-8-[(4-methoxy-3,5-dimethyl-pyridin-2-yl)methyl]-4-methylsulfanyl-5,7-dihydropteridin-6-one]	5.86
COCCCN1C(=O)[C@@H](C)N(Cc2ncc(C)c(OC)c2C)c2nc(N)ncc21 [Example 10, (7R)-2-Amino-8-[(4-methoxy-3,5-dimethylpyridin-2-yl)methyl]-5-(3-methoxypropyl)-7-methyl-7,8-dihydropteridin-6(5H)-one]	5.92
COCCCN1C(=O)CN(Cc2ncc(C)c(OC)c2C)c2nc(N)ncc21 [Example 11.1, 2-amino-8-[(4-methoxy-3,5-dimethylpyridin-2-yl)methyl]-5-(3-methoxypropyl)-7,8-dihydropteridin-6(5H)-one]	5.71
COc1c(C)cnc(CN2c3nc(N)ncc3N(CCc3ccccc3)C(=O)[C@H]2C)c1C [Example 11.2, (7R)-2-amino-8-[(4-methoxy-3,5-dimethylpyridin-2-yl)methyl]-7-methyl-5-(2-phenylethyl)-7,8-dihydropteridin-6(5H)-one]	6.89
COc1c(C)cnc(CN2c3nc(N)ncc3N(CCN3CCNCC3)C(=O)[C@H]2C)c1C [Example 11.3, (7R)-2-amino-8-[(4-methoxy-3,5-dimethylpyridin-2-yl)methyl]-7-methyl-5-(2-piperazin-1-ylethyl)-7,8-dihydropteridin-6(5H)-one]	5.11
COc1c(C)cnc(CN2c3nc(N)ncc3N(CC(F)F)C(=O)[C@H]2C)c1C [Example 11.4, (7R)-2-amino-5-(2,2-difluoroethyl)-8-[(4-methoxy-3,5-dimethylpyridin-2-yl)methyl]-7-methyl-7,8-dihydropteridin-6(5H)-one]	6.72
COc1c(C)cnc(CN2CC(=O)N(CCC(C)C)c3cnc(N)nc32)c1C [Example 11.5, 2-amino-8-[(4-methoxy-3,5-dimethylpyridin-2-yl)methyl]-5-(3-methylbutyl)-7,8-dihydropteridin-6(5H)-one]	5.42
COc1c(C)cnc(CN2CC(=O)N(CCC(C)C)c3c(Cl)nc(N)nc32)c1C [Example 11.6, 2-amino-4-chloro-8-[(4-methoxy-3,5-dimethylpyridin-2-yl)methyl]-5-(3-methylbutyl)-7,8-dihydropteridin-6(5H)-one]	7.01
COc1c(C)cnc(CN2c3nc(N)ncc3N(CCC(C)C)C(=O)[C@H]2C)c1C [Example 11.7, (7R)-2-amino-8-[(4-methoxy-3,5-dimethylpyridin-2-yl)methyl]-7-methyl-5-(3-methylbutyl)-7,8-dihydropteridin-6(5H)-one]	6.43
CCCN1C(=O)[C@@H](C)N(Cc2ncc(C)c(OC)c2C)c2nc(N)ncc21 [Example 11.8, (7R)-2-amino-8-[(4-methoxy-3,5-dimethylpyridin-2-yl)methyl]-7-methyl-5-propyl-7,8-dihydropteridin-6(5H)-one]	6.26
COc1c(C)cnc(CN2c3nc(N)ncc3N(Cc3ccccc3)C(=O)[C@H]2C)c1C [Example 11.9, (7R)-2-amino-5-benzyl-8-[(4-methoxy-3,5-dimethylpyridin-2-yl)methyl]-7-methyl-7,8-dihydropteridin-6(5H)-one]	6.49
COc1c(C)cnc(CN2c3nc(N)ncc3N(CC3CC3)C(=O)[C@H]2C)c1C [Example 11.10, (7R)-2-amino-5-(cyclopropylmethyl)-8-[(4-methoxy-3,5-dimethylpyridin-2-yl)methyl]-7-methyl-7,8-dihydropteridin-6(5H)-one]	6.10
COc1c(C)cnc(CN2c3nc(N)ncc3N(CCN3CCCC3)C(=O)[C@H]2C)c1C [Example 11.11, (7R)-2-amino-8-[(4-methoxy-3,5-dimethylpyridin-2-yl)methyl]-7-methyl-5-(2-pyrrolidin-1-ylethyl)-7,8-dihydropteridin-6(5H)-one]	5.22

same assay, conditions: verbal assessment

Structure (SMILES)	activity in the enzyme assay, test (a)
COc1c(C)cnc(CN2c3nc(N)ncc3NC[C@@H]2C)c1C [Example 5, (7S)-8-[(4-methoxy-3,5-dimethylpyridin-2-yl)methyl]-7-methyl-5,6,7,8-tetrahydropteridin-2-amine]	low activity
COc1c(C)cnc(CN2c3nc(N)ncc3N(C)C[C@@H]2C)c1C [Example 6.1, (7S)-8-[(4-methoxy-3,5-dimethylpyridin-2-yl)methyl]-5,7-dimethyl-5,6,7,8-tetrahydropteridin-2-amine]	low activity
